Measurements published in patent US12251383B2, “Methods and compositions for KRAS inhibitors” (The Board of Regents of the University of Texas System, priority 2019, dated 2025).
Entries after “also recorded” stand apart in the source; their conditions may differ.

Key:
GTPKRAS^WT = GTPKRAS^WT (Homo sapiens, UniProt P01116); test: Microscale thermophoresis (MST) binding, GTP-state (GNP-bound) KRAS WT
Description: (§1) FIGS. 1A-1D show representative data for the predicted binding mode and measured affinity of disclosed compound 11 to KRAS. (FIG. 1A) Structure of the catalytic domain of KRAS used for the virtual screening. Lobe1 (residues 1-86) and lobe2 (residues 87-166) are highlighted in different colors, as well as switches 1 (residues 30-40) and 2 (residues 60-75). The location of the target allosteric pocket p1 is indicated. (FIG. 1B) Chemical structure of compound 11. (FIG. 1C) Predicted binding pose of compound 11, with the key residues that make polar or vdW contacts with the ligand labeled. (FIG. 1D) Microscale thermophoresis (MST) experiments indicating direct binding of compound 11 to KRAS, along with dissociation constants (KD) derived from the curves. Changes in fluorescence upon titration of […] KRAS with increasing concentration of compound are shown: KRAS^WT (red), KRAS^G12C (green), KRAS^G12D (purple) and KRAS^Q61M (blue), each bound to the non-hydrolyzable GTP analogue, guanylyl imidodiphosphate (GNP). The same experiments indicated no binding to GDP-bound KRAS^G12D and KRAS^WT as well as Rap1B, which was used as control. […]

[1] = target: KRAS^G12D in the GTP state (Homo sapiens, UniProt P01116, G12D); test: MST binding, GTP-state KRAS G12D
Chain of KRAS^G12D in the GTP state (P01116 1-188 isoform P01116-2 G12D): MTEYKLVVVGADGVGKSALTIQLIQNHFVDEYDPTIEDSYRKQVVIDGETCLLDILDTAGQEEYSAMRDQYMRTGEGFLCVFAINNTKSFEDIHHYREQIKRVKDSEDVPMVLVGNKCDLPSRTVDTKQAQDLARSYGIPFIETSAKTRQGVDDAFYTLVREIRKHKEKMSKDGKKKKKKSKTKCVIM
Description: as §1

KRAS^G12V = test: Cell signaling (Western) in BHK cells expressing KRAS G12V; format: cell-based, hamster
Procedure: (§2) Cell signaling. The inhibitory potential of compounds was tested in monoclonal Baby Hamster Kidney (BHK) cell lines stably expressing monomeric green fluorescence protein (mGFP)-tagged KRAS^G12D, K-Ras^G12V and HRAS^G12V. Cells were cultured in Dulbecco's Modified Eagle Medium (DMEM, Hyclone) supplemented with 10% v/v bovine calf serum and incubated with compound or vehicle (DMSO) for 3 h without serum. Cells were then harvested in lysis buffer (50 mM Tris (pH 7.5), 75 mM NaCl, 25 mM NaF, 5 mM MgCl2, 5 mM EGTA, 1 mM dithiothreitol, 100 μM NaVO4, 1% Nonidet P40 plus protease inhibitors) and subjected to Western analysis controlling protein loading by BCA (bicinchoninic acid) assay. Lysates were resolved with Bio-Rad polyacrylamide TGX 10% gel, transferred to polyvinylidene fluoride (PVDF) membrane and immunoblotted using pan-AKT (2920S), GFP (2956S), pAKT^S473 (4060L), p-cRaf^S338 (9427S), p-ERK^T202/Y204 (4370L), ERK1/2 (4695S) or β-actin antibodies (Cell Signaling Technology). IC50 values were calculated with Prism 4-parameter fit.

HRAS^G12V = test: Cell signaling (Western) in BHK cells expressing HRAS G12V; format: cell-based, hamster
Procedure: as §2

[2] = tested on: SKLU-1 (KRAS^G12D) lung cancer cells; test: Cell proliferation (CyQuant), SKLU-1; format: cell-based; settings: 72 h
Procedure: (§3) Cell proliferation. Potential effect of the ligands on cancer cell proliferation was tested in three lung cancer cells: SKLU-1, H1975 and H522. Cells were plated at ˜1,000 cell per well in a 96-well plate and maintained in full serum media with or without compound at 37° C. for 72 h changing the media with the compound every 24 h. Media with compound was prepared by serial dilution at concentrations indicated. Then cells were washed with PBS and frozen at −80° C. for a minimum of 24 h. Plates were thawed and CyQuant™ dye (in lysis buffer provided in the CyQuant™ cell proliferation assay kit, Invitrogen™) was added, and after a five-minute incubation, fluorescence (excitation: 480 nm emission: 520 nm) was measured with a Tecan Infinite M200 plate reader.

[3] = tested on: H522 (KRAS^WT) lung cancer cells; test: Cell proliferation (CyQuant), H522; format: cell-based; settings: 72 h
Procedure: as §3

[4] = Solubility in DMSO and common solvents; format: physicochemical; settings: DMSO

Chain of GTPKRAS^WT (P01116 1-188 isoform P01116-2): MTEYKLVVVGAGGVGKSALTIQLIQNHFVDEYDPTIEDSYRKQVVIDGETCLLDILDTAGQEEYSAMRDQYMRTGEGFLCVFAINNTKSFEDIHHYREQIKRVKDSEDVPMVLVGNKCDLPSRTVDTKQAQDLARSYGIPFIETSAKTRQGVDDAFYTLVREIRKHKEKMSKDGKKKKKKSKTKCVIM

SMILES	Kd (GTPKRAS^WT)	Kd [1]	effect on p-ERK levels (KRAS^G12V)	effect on p-cRaf levels (KRAS^G12V)	effect on p-AKT levels (HRAS^G12V)	effect on p-ERK levels (HRAS^G12V)	effect on p-cRaf levels (HRAS^G12V)	sensitivity of proliferation [2]	sensitivity of proliferation [3]	solubility [4]
Cc1nn2c(N3CCN(CCO)CC3)cc(-c3ccccc3)nc2c1-c1ccccc1 [Compound 11, 2-[4-(8-methyl-3,9-diphenyl-2,6,7-triazabicyclo[4.3.0]nona-2,4,7,9-tetraen-5-yl)piperazin-1-yl]ethanol]	~300 nM	400 to 700 nM	dose-dependently reduced; also recorded: dose-dependently decreases	dose-dependently reduced; also recorded: dose-dependently decreases	no major effect	not and no significant effect	not and no significant effect	slightly more sensitive; also recorded: especially responsive	sensitive	–
Cc1cc(N2CCN(CCO)CC2)n2nc(C)c(-c3ccccc3)c2n1 [Compound 13]	–	–	–	–	–	–	–	–	–	readily soluble
